What was measured:
Assay type in all cases: functional
Escherichia coli [1] = assay: Antimicrobial activity against Escherichia coli isolate GZ1 transconjugant harboring 16S rRNA methylase RmtB and qnrS1 by agar dilution method relative to recipient strain
Escherichia coli [2] = assay: Antimicrobial activity against Escherichia coli isolate CQ19 transconjugant harboring 16S rRNA methylase RmtB and qepA, aac(6')-Ib-cr gene by agar dilution method relative to recipient strain
Escherichia coli [3] = assay: Antimicrobial activity against Escherichia coli isolate CQ12 transconjugant harboring 16S rRNA methylase RmtB and qepA, qnrS2, aac(6')-Ib-cr gene by agar dilution method relative to recipient strain
Escherichia coli [4] = assay: Antimicrobial activity against Escherichia coli isolate GZ13 transconjugant harboring 16S rRNA methylase RmtB and qepA by agar dilution method relative to recipient strain
Escherichia coli [5] = assay: Antimicrobial activity against Escherichia coli isolate GZ8 transconjugant harboring 16S rRNA methylase RmtB and qepA by agar dilution method relative to recipient strain
Escherichia coli [6] = assay: Antimicrobial activity against Escherichia coli isolate GZ3 transconjugant harboring 16S rRNA methylase RmtB and qepA by agar dilution method relative to recipient strain
Escherichia coli [7] = assay: Antimicrobial activity against Escherichia coli isolate CQ2 transconjugant harboring 16S rRNA methylase RmtB and qepA by agar dilution method relative to recipient strain
Escherichia coli [8] = assay: Antimicrobial activity against Escherichia coli isolate GZ14 transconjugant harboring 16S rRNA methylase RmtB and qepA by agar dilution method relative to recipient strain
Escherichia coli [9] = assay: Antimicrobial activity against Escherichia coli isolate GZ5 transconjugant harboring 16S rRNA methylase RmtB and qepA by agar dilution method relative to recipient strain
Escherichia coli [10] = assay: Antimicrobial activity against Escherichia coli isolate GZ12 transconjugant harboring 16S rRNA methylase RmtB and qepA by agar dilution method relative to recipient strain
Escherichia coli [11] = assay: Antimicrobial activity against Escherichia coli isolate GZ15 transconjugant harboring 16S rRNA methylase RmtB and qepA by agar dilution method relative to recipient strain
Escherichia coli [12] = assay: Antimicrobial activity against Escherichia coli isolate CQ6 transconjugant harboring 16S rRNA methylase RmtB and qepA, qnrS2, aac(6')-Ib-cr gene by agar dilution method relative to recipient strain
Escherichia coli [13] = assay: Antimicrobial activity against Escherichia coli isolate CQ18 transconjugant harboring 16S rRNA methylase RmtB and qepA by agar dilution method relative to recipient strain
Escherichia coli [14] = assay: Antimicrobial activity against Escherichia coli isolate CQ5 transconjugant harboring 16S rRNA methylase RmtB and qepA by agar dilution method relative to recipient strain
Escherichia coli [15] = assay: Antimicrobial activity against Escherichia coli isolate GZ4 transconjugant harboring 16S rRNA methylase RmtB and qepA by agar dilution method relative to recipient strain
Escherichia coli [16] = assay: Antimicrobial activity against Escherichia coli isolate CQ20 transconjugant harboring 16S rRNA methylase RmtB and qepA by agar dilution method relative to recipient strain
Escherichia coli [17] = assay: Antimicrobial activity against Escherichia coli isolate CQ1 transconjugant harboring 16S rRNA methylase RmtB and qnrB6 by agar dilution method relative to recipient strain
Escherichia coli [18] = assay: Antimicrobial activity against Escherichia coli isolate GZ7 transconjugant harboring 16S rRNA methylase RmtB and qepA and qnrS1 by agar dilution method relative to recipient strain
Escherichia coli [19] = assay: Antimicrobial activity against Escherichia coli isolate CQ13 transconjugant harboring 16S rRNA methylase RmtB and qnrS1 by agar dilution method relative to recipient strain
Escherichia coli [20] = assay: Antimicrobial activity against Escherichia coli isolate CQ26 transconjugant harboring 16S rRNA methylase RmtB and qepA by agar dilution method relative to recipient strain
Escherichia coli [21] = assay: Antimicrobial activity against Escherichia coli isolate CQ10 transconjugant harboring 16S rRNA methylase RmtB and qepA by agar dilution method relative to recipient strain
Escherichia coli [22] = assay: Antimicrobial activity against Escherichia coli isolate GZ6 transconjugant harboring 16S rRNA methylase RmtB and qepA by agar dilution method relative to recipient strain
Escherichia coli [23] = assay: Antimicrobial activity against Escherichia coli isolate GZ9 transconjugant harboring 16S rRNA methylase RmtB and qepA by agar dilution method relative to recipient strain
Escherichia coli [24] = assay: Antimicrobial activity against Escherichia coli isolate GZ11 transconjugant harboring 16S rRNA methylase RmtB and qepA by agar dilution method relative to recipient strain
Escherichia coli [25] = assay: Antimicrobial activity against Escherichia coli isolate CQ22 transconjugant harboring 16S rRNA methylase RmtB and qnrS1 by agar dilution method relative to recipient strain
Escherichia coli [26] = assay: Antimicrobial activity against Escherichia coli isolate GZ2 transconjugant harboring 16S rRNA methylase RmtB and qnrS1 by agar dilution method relative to recipient strain
Escherichia coli [27] = assay: Antimicrobial activity against Escherichia coli isolate CQ7 transconjugant harboring 16S rRNA methylase RmtB and qepA, qnrS2, aac(6')-Ib-cr gene by agar dilution method relative to recipient strain
Escherichia coli [28] = assay: Antimicrobial activity against Escherichia coli isolate GZ16 transconjugant harboring 16S rRNA methylase RmtB and qepA by agar dilution method relative to recipient strain
Escherichia coli [29] = assay: Antimicrobial activity against Escherichia coli isolate GZ10 transconjugant harboring 16S rRNA methylase RmtB and qepA, aac(6')-Ib-cr gene by agar dilution method relative to recipient strain
Escherichia coli [30] = assay: Antimicrobial activity against Escherichia coli isolate CQ4 transconjugant harboring 16S rRNA methylase RmtB and qepA by agar dilution method relative to recipient strain
Escherichia coli [31] = assay: Antimicrobial activity against Escherichia coli isolate CQ14 transconjugant harboring 16S rRNA methylase RmtB and qepA by agar dilution method relative to recipient strain
Escherichia coli [32] = assay: Antimicrobial activity against Escherichia coli isolate CQ16 transconjugant harboring 16S rRNA methylase RmtB and qepA, qnrS2, aac(6')-Ib-cr gene by agar dilution method relative to recipient strain
Escherichia coli [33] = assay: Antimicrobial activity against Escherichia coli isolate CQ15 transconjugant harboring 16S rRNA methylase RmtB and qepA by agar dilution method relative to recipient strain

SMILES | fold change (FC) (Escherichia coli [1]) | fold change (FC) (Escherichia coli [2]) | fold change (FC) (Escherichia coli [3]) | fold change (FC) (Escherichia coli [4]) | fold change (FC) (Escherichia coli [5]) | fold change (FC) (Escherichia coli [6]) | fold change (FC) (Escherichia coli [7]) | fold change (FC) (Escherichia coli [8]) | fold change (FC) (Escherichia coli [9]) | fold change (FC) (Escherichia coli [10]) | fold change (FC) (Escherichia coli [11]) | fold change (FC) (Escherichia coli [12]) | fold change (FC) (Escherichia coli [13]) | fold change (FC) (Escherichia coli [14]) | fold change (FC) (Escherichia coli [15]) | fold change (FC) (Escherichia coli [16]) | fold change (FC) (Escherichia coli [17]) | fold change (FC) (Escherichia coli [18]) | fold change (FC) (Escherichia coli [19]) | fold change (FC) (Escherichia coli [20]) | also measured
C[C@H]1COc2c(N3CCN(C)CC3)c(F)cc3c(=O)c(C(=O)O)cn1c23.C[C@H]1COc2c(N3CCN(C)CC3)c(F)cc3c(=O)c(C(=O)O)cn1c23.O [LEVOFLOXACIN] | 4 | 1 | 2 | 2 | 1 | 2 | 4 | 4 | 2 | 8 | 2 | 4 | 1 | 1 | 2 | 2 | 1 | 1 | 4 | 1 | fold change (FC) (Escherichia coli [21]): 2; fold change (FC) (Escherichia coli [22]): 4; fold change (FC) (Escherichia coli [23]): 2; fold change (FC) (Escherichia coli [24]): 2; fold change (FC) (Escherichia coli [25]): 1; fold change (FC) (Escherichia coli [26]): 2; fold change (FC) (Escherichia coli [27]): 1; fold change (FC) (Escherichia coli [28]): 4; fold change (FC) (Escherichia coli [29]): 4; fold change (FC) (Escherichia coli [30]): 1; fold change (FC) (Escherichia coli [31]): 2; fold change (FC) (Escherichia coli [32]): 2; fold change (FC) (Escherichia coli [33]): 1
CCn1cc(C(=O)O)c(=O)c2cc(F)c(N3CCNCC3)cc21 [NORFLOXACIN] | 16 | 16 | 16 | 8 | 8 | 16 | 16 | 16 | 16 | 16 | 4 | 16 | 8 | 16 | 4 | 4 | 2 | 16 | 4 | 4 | fold change (FC) (Escherichia coli [21]): 32; fold change (FC) (Escherichia coli [22]): 8; fold change (FC) (Escherichia coli [23]): 16; fold change (FC) (Escherichia coli [24]): 4; fold change (FC) (Escherichia coli [25]): 2; fold change (FC) (Escherichia coli [26]): 2; fold change (FC) (Escherichia coli [27]): 16; fold change (FC) (Escherichia coli [28]): 8; fold change (FC) (Escherichia coli [29]): 16; fold change (FC) (Escherichia coli [30]): 2; fold change (FC) (Escherichia coli [31]): 32; fold change (FC) (Escherichia coli [32]): 16; fold change (FC) (Escherichia coli [33]): 8
CCn1cc(C(=O)O)c(=O)c2ccc(C)nc21 [NALIDIXIC ACID] | 4 | 1 | 1 | 4 | 4 | 8 | 1 | 1 | 1 | 1 | 1 | 16 | 1 | 1 | 2 | 1 | 2 | 16 | 4 | 1 | fold change (FC) (Escherichia coli [21]): 1; fold change (FC) (Escherichia coli [22]): 1; fold change (FC) (Escherichia coli [23]): 4; fold change (FC) (Escherichia coli [24]): 2; fold change (FC) (Escherichia coli [25]): 1; fold change (FC) (Escherichia coli [26]): 4; fold change (FC) (Escherichia coli [27]): 1; fold change (FC) (Escherichia coli [28]): 2; fold change (FC) (Escherichia coli [29]): 16; fold change (FC) (Escherichia coli [30]): 2; fold change (FC) (Escherichia coli [31]): 1; fold change (FC) (Escherichia coli [32]): 2; fold change (FC) (Escherichia coli [33]): 1
